Measurements as given in a melting point compilation (Tetko et al.; mined from patent text by program, amines drawn as free bases though some values may be those of a salt).

Structure (SMILES) | melting point [°C]
OCCCN1CCN(c2ccccc2OCC(F)(F)F)CC1 | 94 to 96
O=C(CCC1CCCCC1)C1=C(O)CSC1=O | 60 to 62
CNc1nc2c(s1)C(=O)CC(C)(C)C2 | 217 to 218
CC(=O)n1[nH]c(=O)n(-c2ccc(Cl)cc2)c1=O | 201 to 203
CC=CC=CC(=O)Nc1ccc2ncnc(Nc3cccc(Br)c3)c2c1 | 258 to 260
OC(c1ccc(Cl)cc1)c1ccc(-n2ccnc2)nc1 (centres undefined) | 147 to 149
Brc1ccc(N2CCN(CCCOc3ccc(C4=NCCO4)cc3)CC2)nn1 | 169
CCCC(=O)C1=C(O)CC(c2cc(C(C)C)no2)CC1=O (centres undefined) | 105 to 107
Cn1ncc(C(N)=O)c1-c1ccc([N+](=O)[O-])o1 | 174 to 176
Cc1noc(C)c1Cn1cc(N2C(=O)CNC2=O)cn1 | 169 to 171
O=C1Cc2cc(NC(=O)C(=O)N3CCC(Cc4cccc(F)c4)CC3)ccc2N1 | 182 to 184
CC(=O)N(CCN1CCOCC1)C(C)C1(c2ccc(Cl)c(Cl)c2)CCC1 (centres undefined) | 121 to 122
CC1(C)CCC(C)(C)c2cc(-c3cc(CO)cc(-c4ccc(C(=O)O)cc4)c3)ccc21 | 213
O=C(O)c1cc2c(c(O)c1Br)OCO2 | 196 to 205
CCOC(=O)C(Sc1nc2cc(Cl)ccc2s1)c1ccccc1 (centres undefined) | 62 to 64
CCOCc1nc2c(N)nc(C)cc2n1CCCCN | 108 to 111
Cn1ccc(-c2ccc([N+](=O)[O-])o2)n1 | 163 to 164
CC(NC(=O)c1ccc(NC(=O)c2ccccc2SSc2ccccc2C(=O)Nc2ccc(C(=O)NC(C)C(=O)O)cc2)cc1)C(=O)O (centres undefined) | 265
CNC(=O)NC1CCC(O)c2ccccc21 (centres undefined) | 172 to 180
OC1CSC(Oc2cccc(-c3cncc(F)c3)c2)C(O)C1O (centres undefined) | 211 to 212
CCCNC(=O)N1Cc2cccn2-c2ccsc2C1=O | 120

Structure (SMILES) | melting point [°C]
Cc1c(OCc2ccccc2)cc(C(C)(C)C)cc1[N+](=O)[O-] | 77 to 79
O=P(c1ccccc1)(c1ccc(F)cc1)c1ccc(F)cc1 | 103 to 105
CCOC(=O)C1=C(C)NC(c2sc(C)nc2C)=NC1c1ccc(F)cc1Cl (centres undefined) | 117 to 119
Cn1ncc([N+](=O)[O-])c1CBr | 71 to 73
C[C@]12CC[C@H](O)CC1=CCC1C2CC[C@@]2(C)C1CC[C@H]2n1cc(-c2ccccc2)nn1 (some centres undefined) | 234 to 236
COC(=O)c1cc(OC)c(CCNC(C)=O)c(OC)c1 | 233 to 235
COC(=O)c1ccc(-c2ncc(-c3ccc4c(c3)C(C)(C)CCC4(C)C)o2)cc1 | 153 to 155
Nc1nc(Cl)c(Cl)nc1CO | 174 to 176
Clc1ccc(Cn2cc(CCn3ccnc3)c3ccccc32)cc1 | 78 to 80
CC(=O)N1N=C(c2ccc([N+](=O)[O-])cc2)c2cc3c(cc2CC1C)OCO3 (centres undefined) | 140 to 142
Cn1c(Nc2cc(C(F)(F)F)ccc2Cl)nc(C(F)(F)F)cc1=O | 158 to 159
Cc1cc(C(F)(F)F)nn1CC(=O)N1CCC(c2nc(NC(=O)C3CCCc4ccccc43)cs2)CC1 (centres undefined) | 179 to 181
CC1(C)C=C(N2CCCC2=O)c2cc([N+](=O)[O-])ccc2O1 | 135 to 137
CC1=CC(c2ccccc2C(F)(F)F)C([N+](=O)[O-])=C(C)N1 (centres undefined) | 201
CN1CCN(C2=Nc3ccc(Cl)cc3Cn3cccc32)CC1 | 186 to 188
OC1(C2(Cl)CC2)Cc2ncnn2C(CC(Cl)(Cl)Cl)C1 (centres undefined) | 153 to 154
CC(C)(C)c1cc(OCC(=O)OCCN2C(C)(C)CC(OC(=O)COc3ccc(O)c(C(C)(C)C)c3)CC2(C)C)ccc1O | 74 to 77
COC(=O)c1cn(-c2ccc(F)cc2)c(C=Cc2cccnc2)cc1=O | 201 to 204
Cc1ccc(OCCOc2cccc(C)c2)cc1 | 94
CN(C)c1ccccc1CSc1nccc(=O)[nH]1 | 156 to 158
O=S(=O)(Cc1ccc(C(O)c2ccc(Cl)cc2)cc1)C(F)(F)F (centres undefined) | 113 to 115

Structure (SMILES) | melting point [°C]
O=C(O)c1cc(C(F)(F)F)ccc1Cl | 93 to 94
CSc1nc2cc3c(cc2[nH]1)NC(=O)C3(C)C | 248 to 250
Cc1ccsc1-c1nc(COc2ccc(CCCCn3ccnc3)cc2)co1 | 88 to 89
O=C(c1c(F)cccc1F)N1COCN(c2ccc(S(=O)C(F)(C(F)(F)F)C(F)(F)F)cc2F)C1=O (centres undefined) | 40 to 45
COc1ccc(CN(C(=O)C2CCOc3c(O)cccc32)c2ccc(C(C)C)cc2)cn1 (centres undefined) | 141
OC1(C(F)(F)F)CC(c2ccc(Cl)cc2)=NN1Cc1cccnc1 (centres undefined) | 158 to 160
Cc1ccc(S(=O)(=O)NN=C2CCCCCCCC2)cc1 | 135 to 138
Cc1cc(C)c(Nc2nc(C)ncc2S(=O)(=O)c2ccc(-c3cccnc3)cc2)c(C)c1 | 190 to 192
NCC1Cc2cc(-c3cccc(C(F)(F)F)c3)cc(F)c2O1 (centres undefined) | > 250
O=C(O)c1cc(NC(=O)C(CS)Cc2ccccc2)cc(C(F)(F)F)c1 (centres undefined) | 71 to 74
CCOC(=O)C(CC)(CC)CCCS(N)(=O)=O | 66 to 67
O=C(O)c1ccccc1SSc1ccc([N+](=O)[O-])cc1C(Cl)(Cl)Cl | 224
CCC(=O)c1c(C(=O)C(C)C)c2ccc(C(N)=O)cc2n1Cc1ccccc1Cl | 145 to 147
O=S1(=O)N=C(n2ccnc2)Nc2ccc(C(F)(F)F)cc21 | 211 to 214
Cc1cc(SCc2ccc(-c3ccc(C(F)(F)F)cn3)cc2)c2c(c1OCC(=O)O)CCC2 | 186
NNC(=O)C(=O)N(NC(=O)c1cc(Cl)ccc1O)C(=O)c1ccccc1O | > 330
CCCC(=O)Nc1ccc(C(=O)Nc2ccc3cc(CN4CCCC4)cnc3c2C)cc1 | 192 to 194
O=C(Nc1ccc2[nH]c(=O)c(=O)[nH]c2c1)C(F)(F)F | > 330
CN1CCN(Cc2ccc(C(=O)Nc3cccc(Nc4ncc(C#N)c(-c5cccs5)n4)c3)cc2)CC1 | 208 to 209
CC(C)(C)OC(=O)C(Nc1ccccc1)c1ccc(Cl)cc1 (racemic) | 98

Now from value to compound:

melting point [°C] | Structure (SMILES)
182 to 184 | Cn1nc(OC(c2ccccc2)c2ccccc2)c(=O)nc1Cl
93 to 94 | CN(C)CCOC(=O)C(=O)c1ccc(OCCOc2ccc3ccccc3c2)cc1
89 to 91 | Cc1cc(CC(=O)OC(C)(C)C)ccc1NC(=O)Nc1ccccc1F
170 | COCCOc1ccc(CCNC(=O)c2cnc3ccccc3c2)cc1S(N)(=O)=O
222 | c1ccc(CN2CCC(Cc3nc4ccccc4[nH]3)CC2)cc1
94 to 95 | COc1cc(C(=O)C=Cc2ccccn2)cc(OC)c1OC
91 to 93 | COC1=C(OC)C(=O)C2=C(CC(CCCCCCCCN3C(=O)c4ccccc4C3=O)C2)C1=O
204 to 206 | CCCn1nc2c(N)nc3ccccc3c2c1CCCCN1C(=O)c2ccccc2C1=O
162 | CCCCS(=O)(=O)Nc1ccc(Oc2cccc3cccnc23)cc1
84.5 to 86.5 | C=C1c2ccccc2CC(N)c2ccccc21 (centres undefined)
100 | COc1cc2c(cc1OC)CN(CCCOc1ccc(N)cc1)CC2
114 to 116 | COCCc1nc2c(N)nc3ccccc3c2n1CCCCNC(=O)c1cnc2ccccc2c1
108 to 109 | COc1cccc(S(=O)(=O)N2CCCC2=O)c1
123 to 126 | COCc1c(-c2ccon2)ncc2[nH]c3ccc(OCc4ccccc4)cc3c12
267 to 272 | c1ccc2c(Nc3ccc4[nH]ncc4c3)nc(-c3ccc4c(c3)CCO4)nc2c1
289 to 292 | COc1ccc(-c2nc3c(C(N)=O)cccc3n2C)cc1
163 to 168 | O=c1c2c(Cl)cc(Cl)cc2n(Cc2ccccc2)c(=O)n1Cc1ccc(Br)cc1
151 to 154 | COc1ccc2cc(-c3ccc(OCCN4CCCC4)cc3)sc2c1
141 to 142 | CCCCOc1c(CNC(=O)OC(C)(C)C)n(CC(C)C)c(=O)c2ccc(/C=C/c3cscn3)cc12

melting point [°C] | Structure (SMILES)
168 to 170 | COC(=O)CN(c1ccc(Cl)cc1C(=O)c1ccccc1F)S(=O)(=O)c1ccc(N)cc1
172 to 175 | Cc1noc(NS(=O)(=O)c2ccccc2-c2cc3ccccc3[nH]2)c1C
187 to 188 | CCN1c2ncc(CCc3ccccc3)cc2C(=O)N(C)c2c1ncc(C)c2C
156 to 158 | CC(C)n1c(NC(=O)c2ccccc2)nc2ccccc2c1=O
204 to 205 | CCOCc1nc2c(N)nc3ccccc3c2n1Cc1ccccc1
140 to 145 | CN1C(=O)c2ccccc2CC1C(=O)NC(Cc1c[nH]cn1)C(=O)N1CCCC1C(N)=O (centres undefined)
114 to 116 | CCCCNC(=O)c1ccc(C(F)(F)F)c(-n2nc(CC)n(Cc3ccc(-c4ccccc4S(=O)(=O)NC(=O)OC(C)(C)C)cc3F)c2=O)c1
228 | CN1CCCC(C2=C(C#N)C(c3cccc4nonc34)c3c[nH]nc3N2)C1 (centres undefined)
282 to 284 | Cc1cc2c(-c3ccccc3F)nc(=O)[nH]c2s1
180 to 182 | COc1cccc(N2C(CO)=Cc3cc(S(N)(=O)=O)sc3S2(=O)=O)c1
230 | O=C(O)c1ccccc1S(=O)(=O)Cc1c(O[C@H](Cn2ccnc2)c2ccccc2)ccc2c1CCCC2=O
258 to 259 | O=C(C=c1sc2n(c1=O)Cc1ccccc1N=2)NCc1ccccc1
76 to 77 | Cc1ccc2c(n1)CC(c1ccccc1C)CC2=O (centres undefined)
79 to 80 | CCc1c(C(=O)c2cc(C)cc(C)c2)n(CC2=CC(CO)C(CO)C2)c(=O)[nH]c1=O (centres undefined)
207 to 208 | CC(=O)c1cnc(-c2ccccc2)c(-c2ccc(=O)n(C(C)C)n2)c1
96 to 97 | CCCc1c(OCCCOc2ccc(C#N)cc2Cl)ccc(C(C)=O)c1O
159 to 160 | CC1(C)CCC2(CC1)CC(=O)N(CCCn1c(=O)sc3ccc(Cl)cc31)C2=O
78 to 80 | COCCO[C@H]1c2ccn3c(C)c(C)nc3c2N[C@H](c2ccccc2)[C@H]1OC(=O)c1ccccc1
